Results as given in PubChem BioAssay (NCI).
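Briefly, cells in 96-well plates were exposed to five compound concentrations for 48 h, and endpoints were estimated by linear interpolation. GI50 = concentration required for 50% inhibition of growth. TGI marks complete inhibition of growth.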

What was measured:
Test in all cases: DTP human tumour cell line panel, 48 h
TK-10 renal = test system: TK-10 renal
OVCAR-3 ovarian = test system: OVCAR-3 ovarian
A549 NSCLC = test system: A549 NSCLC
K-562 leukemia = test system: K-562 leukemia
IGROV1 ovarian = test system: IGROV1 ovarian
M14 melanoma = test system: M14 melanoma
COLO 205 colon = test system: COLO 205 colon
HS 578T breast = test system: HS 578T breast
OVCAR-5 ovarian = test system: OVCAR-5 ovarian
OVCAR-8 ovarian = test system: OVCAR-8 ovarian
CAKI-1 renal = test system: CAKI-1 renal
SNB-19 CNS = test system: SNB-19 CNS
SF-539 CNS = test system: SF-539 CNS
HOP-62 NSCLC = test system: HOP-62 NSCLC
BT-549 breast = test system: BT-549 breast
NCI/ADR-RES ovarian = test system: NCI/ADR-RES ovarian
786-0 renal = test system: 786-0 renal
NCI-H460 lung = test system: NCI-H460 lung
HCC-2998 colon = test system: HCC-2998 colon
NCI-H226 lung = test system: NCI-H226 lung
NCI-H522 lung = test system: NCI-H522 lung
CCRF-CEM leukemia = test system: CCRF-CEM leukemia
RPMI-8226 leukemia = test system: RPMI-8226 leukemia
SK-MEL-28 melanoma = test system: SK-MEL-28 melanoma
SW-620 colon = test system: SW-620 colon
UACC-62 melanoma = test system: UACC-62 melanoma
UO-31 renal = test system: UO-31 renal
SR leukemia = test system: SR leukemia
U251 CNS = test system: U251 CNS
MDA-MB-435 = test system: MDA-MB-435
SF-268 CNS = test system: SF-268 CNS
HCT-116 colon = test system: HCT-116 colon
PC-3 prostate = test system: PC-3 prostate
LOX IMVI melanoma = test system: LOX IMVI melanoma
HCT-15 colon = test system: HCT-15 colon
MALME-3M melanoma = test system: MALME-3M melanoma
OVCAR-4 ovarian = test system: OVCAR-4 ovarian
KM12 colon = test system: KM12 colon
MDA-MB-231 breast = test system: MDA-MB-231 breast
HT29 colon = test system: HT29 colon
EKVX NSCLC = test system: EKVX NSCLC
HL-60(TB) leukemia = test system: HL-60(TB) leukemia
MOLT-4 leukemia = test system: MOLT-4 leukemia
UACC-257 melanoma = test system: UACC-257 melanoma
SK-MEL-5 melanoma = test system: SK-MEL-5 melanoma
SK-OV-3 ovarian = test system: SK-OV-3 ovarian
SNB-75 CNS = test system: SNB-75 CNS
SK-MEL-2 melanoma = test system: SK-MEL-2 melanoma
SF-295 CNS = test system: SF-295 CNS
SN12C renal = test system: SN12C renal
DU-145 prostate = test system: DU-145 prostate
ACHN renal = test system: ACHN renal
NCI-H23 lung = test system: NCI-H23 lung
MCF7 breast = test system: MCF7 breast
RXF 393 renal = test system: RXF 393 renal
HOP-92 NSCLC = test system: HOP-92 NSCLC
T-47D breast = test system: T-47D breast

Work on `CC(=O)OCc1cc[c]([Hg][Cl])o1` yielded a GI50 (TK-10 renal) of 2720 nM, a TGI (TK-10 renal) of 5.89 µM and a GI50 (OVCAR-3 ovarian) of 3.97 µM. It also gave a TGI (OVCAR-3 ovarian) of 16.2 µM, a GI50 (A549 NSCLC) of 21.8 µM and a TGI (A549 NSCLC) of 43.2 µM. The GI50 (K-562 leukemia) was 991 nM, the TGI (K-562 leukemia) was 10.3 µM and the GI50 (IGROV1 ovarian) was 3.14 µM. The TGI (IGROV1 ovarian) was 10.4 µM, the GI50 (M14 melanoma) was 3.11 µM and the TGI (M14 melanoma) was 13 µM. For the same compound, the GI50 (COLO 205 colon) was 1630 nM, the TGI (COLO 205 colon) was 3.29 µM and the GI50 (HS 578T breast) was 9.99 µM. For the same compound, the TGI (HS 578T breast) was 65.6 µM, the GI50 (OVCAR-5 ovarian) was 11.8 µM and the TGI (OVCAR-5 ovarian) was 30.2 µM. The GI50 (OVCAR-8 ovarian) was 11.4 µM, the TGI (OVCAR-8 ovarian) was 57.7 µM and the GI50 (CAKI-1 renal) was 10.4 µM. It also gave a TGI (CAKI-1 renal) of 23.5 µM, a GI50 (SNB-19 CNS) of 3.08 µM and a TGI (SNB-19 CNS) of 12 µM. The GI50 (SF-539 CNS) was 4.97 µM, the TGI (SF-539 CNS) was 21.2 µM and the GI50 (HOP-62 NSCLC) was 13.8 µM. For the same compound, the TGI (HOP-62 NSCLC) was 28.6 µM, the GI50 (BT-549 breast) was 6.43 µM and the TGI (BT-549 breast) was 19.3 µM. It also gave a GI50 (NCI/ADR-RES ovarian) of 10.8 µM, a TGI (NCI/ADR-RES ovarian) of 39.1 µM and a GI50 (786-0 renal) of 3.88 µM. It also gave a TGI (786-0 renal) of 13.2 µM, a GI50 (NCI-H460 lung) of 15.5 µM and a TGI (NCI-H460 lung) of 45.6 µM. For the same compound, the GI50 (HCC-2998 colon) was 15.4 µM, the TGI (HCC-2998 colon) was 29.2 µM and the GI50 (NCI-H226 lung) was 19.4 µM. The TGI (NCI-H226 lung) was 45.5 µM, the GI50 (NCI-H522 lung) was 709 nM and the TGI (NCI-H522 lung) was 2450 nM. For the same compound, the GI50 (CCRF-CEM leukemia) was 2080 nM, the TGI (CCRF-CEM leukemia) was 8.85 µM and the GI50 (RPMI-8226 leukemia) was 4.69 µM. For the same compound, the TGI (RPMI-8226 leukemia) was 34.9 µM, the GI50 (SK-MEL-28 melanoma) was 2730 nM and the TGI (SK-MEL-28 melanoma) was 7.84 µM. For the same compound, the GI50 (SW-620 colon) was 1600 nM, the TGI (SW-620 colon) was 3.82 µM and the GI50 (UACC-62 melanoma) was 2590 nM. It also gave a TGI (UACC-62 melanoma) of 11.3 µM, a GI50 (UO-31 renal) of 1820 nM and a TGI (UO-31 renal) of 3.45 µM. For the same compound, the GI50 (SR leukemia) was 619 nM, the TGI (SR leukemia) was 12.3 µM and the GI50 (U251 CNS) was 2000 nM. The TGI (U251 CNS) was 5.02 µM, the GI50 (MDA-MB-435) was 3.54 µM and the TGI (MDA-MB-435) was 15.5 µM. The GI50 (SF-268 CNS) was 8.78 µM, the TGI (SF-268 CNS) was 21.8 µM and the GI50 (HCT-116 colon) was 10.1 µM. It also gave a TGI (HCT-116 colon) of 24.3 µM, a GI50 (PC-3 prostate) of 11 µM and a TGI (PC-3 prostate) of 24.2 µM. The GI50 (LOX IMVI melanoma) was 1960 nM, the TGI (LOX IMVI melanoma) was 4.96 µM and the GI50 (HCT-15 colon) was 1620 nM. The TGI (HCT-15 colon) was 3.66 µM, the GI50 (MALME-3M melanoma) was 1600 nM and the TGI (MALME-3M melanoma) was 3.27 µM. For the same compound, the GI50 (OVCAR-4 ovarian) was 12.7 µM, the TGI (OVCAR-4 ovarian) was 43 µM and the GI50 (KM12 colon) was 16.8 µM. The TGI (KM12 colon) was 42.2 µM, the GI50 (MDA-MB-231 breast) was 2590 nM and the TGI (MDA-MB-231 breast) was 7.81 µM. It also gave a GI50 (HT29 colon) of 5.61 µM, a TGI (HT29 colon) of 26.3 µM and a GI50 (EKVX NSCLC) of 12.4 µM. For the same compound, the TGI (EKVX NSCLC) was 28.2 µM, the GI50 (HL-60(TB) leukemia) was 2460 nM and the TGI (HL-60(TB) leukemia) was 6.28 µM. For the same compound, the GI50 (MOLT-4 leukemia) was 2070 nM, the TGI (MOLT-4 leukemia) was 8.46 µM and the GI50 (UACC-257 melanoma) was 13.5 µM. The TGI (UACC-257 melanoma) was 26.8 µM, the GI50 (SK-MEL-5 melanoma) was 4.38 µM and the TGI (SK-MEL-5 melanoma) was 15.9 µM. The GI50 (SK-OV-3 ovarian) was 22.5 µM, the TGI (SK-OV-3 ovarian) was 53.6 µM and the GI50 (SNB-75 CNS) was 12.8 µM. It also gave a TGI (SNB-75 CNS) of 51.4 µM, a GI50 (SK-MEL-2 melanoma) of 16.7 µM and a TGI (SK-MEL-2 melanoma) of 32.2 µM. The GI50 (SF-295 CNS) was 14.3 µM, the TGI (SF-295 CNS) was 28.8 µM and the GI50 (SN12C renal) was 5.24 µM. The TGI (SN12C renal) was 29.9 µM, the GI50 (DU-145 prostate) was 13.6 µM and the TGI (DU-145 prostate) was 26.4 µM. The GI50 (ACHN renal) was 1810 nM, the TGI (ACHN renal) was 3.44 µM and the GI50 (NCI-H23 lung) was 12.1 µM. The TGI (NCI-H23 lung) was 29.7 µM, the GI50 (MCF7 breast) was 994 nM and the TGI (MCF7 breast) was 18.3 µM. It also gave a GI50 (RXF 393 renal) of 5.12 µM, a TGI (RXF 393 renal) of 17.4 µM and a GI50 (HOP-92 NSCLC) of 2510 nM. For the same compound, the TGI (HOP-92 NSCLC) was 6.36 µM, the GI50 (T-47D breast) was 1360 nM and the TGI (T-47D breast) was 3.98 µM.
